Here are results for 3 compounds from US20070203242A1, “Method for treating gastric reflux” (priority 2006, published 2007).

The subject of experiment [1] is patients with gastric reflux / heartburn. As to the kind of experiment: Patient reports of relief of gastric reflux / heartburn after oral L-arginine compositions. Format: in vivo, human. The note with it: for relief of gastric reflux due to stress: one patient. The text has this:
A patient having ulcerations in the upper small intestine who routinely took omeprazole or lansoprazole complained of heartburn on laying down.

Experiment [2] relates to small bowel ulcers. The note with it: rats; yeast RNA together with L-arginine; cited from earlier work.
In experiment [3] the test system is aspirin induced gastric lesions. The following applies: dose 62.5 mg/kg; cited from earlier work.
Experiment [4] relates to indomethacin induced gastric lesions. The note with it: dose 15.6 mg/kg; cited from earlier work.

As to `O=C([O-])[O-].[Ca+2]` [calcium carbonate antacids, calcium carbonate, reference compound], in experiment [1] (L-arginine 1 gram dose), the “relief of gastric reflux due to stress” value is reported as “no relief”.
For the compound `N=C(N)NCCC[C@H](N)C(=O)O` [L-arginine], the “L-arginine required for complete control of the gastric reflux” value in experiment [1] (daily, severely afflicted patient) is 1 to 4 g. Further, the “time to complete cessation of all symptoms” value in experiment [1] (one patient with reflux due to stress, L-arginine 1 gram dose) is “complete cessation of all symptoms within one minute”. In experiment [1] (L-arginine 1 gram dose), the “relief of gastric reflux due to stress” value is recorded as “immediate relief”. Besides, the “decrease in ulcer number” value in experiment [2] is reported as 34%.
Regarding `NC(=O)CC[C@H](N)C(=O)O` [Glutamine, L-glutamine], the “prevention of aspirin induced gastric lesions” value in experiment [3] was “completely ineffective”. Besides, the “prevention of indomethacin induced gastric lesions” value in experiment [4] is recorded as “ineffective”.
